Assay results taken from paper PMC8438627 (The Journal of Cell Biology, 2021).

Test system: NAP1L4
Test: IP-IB of HA-tagged
Type: binding
Conditions: HA-tagged (PR)12 mixed with HEK293 cell lysates containing increasing concentrations of 1,6-hexanediol

OCCCCCCO [1,6-hexanediol]
immunoprecipitated NAP1L4 signal with increasing 1,6-hexanediol: faded accordingly
